Among the data in patent publication US20210403435A1, “HERBICIDAL COMPOUNDS” (SYNGENTA CROP PROTECTION AG, priority 2018, published 2021) are pest or weed control values, retold here.

What all share (test): Post-emergence efficacy, glasshouse, evaluated after 13 days
Format in all cases: in vivo

Test [1] relates to Amaranthus palmeri (AMAPA). As to conditions: Amaranthus palmeri, 312 h; post-emergence application, 500 g/Ha, evaluated after 13 days; read-out: Control of weed species AMAPA (100=total damage to plant; 0=no damage to plant). The essentials:
(§1)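 Plants grown 14 days in pots of standard soil in a glasshouse (24/16 °C day/night, 14 h light, 65% humidity), then sprayed post-emergence with compound formulated in acetone and IF50 and diluted in 0.25% or 1% Empicol ESC70 + 1% ammonium sulphate. Damage scored after 13 days, 0–100 (100 = total damage).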

Test [2] deals with Chenopodium album (CHEAL). The conditions noted are these: Chenopodium album, 312 h; post-emergence application, 500 g/Ha, evaluated after 13 days; read-out: Control of weed species CHEAL (100=total damage to plant; 0=no damage to plant). A digest of the protocol:
as §1

For test [3], the system named is Ipomoea hederacea (IPOHE). The conditions noted are these: Ipomoea hederacea, 312 h; post-emergence application, 500 g/Ha, evaluated after 13 days; read-out: Control of weed species IPOHE (100=total damage to plant; 0=no damage to plant). The essentials:
as §1

The next test deals with Setaria faberi (SETFA). The conditions noted are these: Setaria faberi, 312 h; post-emergence application, 500 g/Ha, evaluated after 13 days; read-out: Control of weed species SETFA (100=total damage to plant; 0=no damage to plant). A digest of the protocol: as §1
The subject of test [4] is Echinochloa crus-galli (ECHCG). The conditions noted are these: Echinochloa crus-galli, 312 h; post-emergence application, 500 g/Ha, evaluated after 13 days; read-out: Control of weed species ECHCG (100=total damage to plant; 0=no damage to plant). A digest of the protocol: as §1
The test system of test [5] is Digitaria sanguinalis (DIGSA). The conditions noted are these: Digitaria sanguinalis, 312 h; post-emergence application, 500 g/Ha, evaluated after 13 days; read-out: Control of weed species DIGSA (100=total damage to plant; 0=no damage to plant). A digest of the protocol:
as §1

Another test deals with Eleusine indica (ELEIN). The conditions noted are these: Eleusine indica, 312 h; post-emergence application, 500 g/Ha, evaluated after 13 days; read-out: Control of weed species ELEIN (100=total damage to plant; 0=no damage to plant). A digest of the protocol:
as §1

The subject of the next test is Lolium perenne (LOLPE). The conditions noted are these: Lolium perenne, 312 h; post-emergence application, 500 g/Ha, evaluated after 13 days; read-out: Control of weed species LOLPE (100=total damage to plant; 0=no damage to plant). A digest of the protocol:
as §1

Test [6] relates to Euphorbia heterophylla (EPHHL). As to conditions: Euphorbia heterophylla, 312 h; post-emergence application, 500 g/Ha, evaluated after 13 days; read-out: Control of weed species EPHHL (100=total damage to plant; 0=no damage to plant). A digest of the protocol: as §1

In the case of `CC(O)CCNC(=O)c1cc[n+](CCC(=O)O)nc1` (stereo not drawn) [Compound A127], the pest or weed control at 500 g/ha in test [1] is 100%; in test [2], 80%; in test [3], 30%; in the test on Setaria faberi (SETFA) it was 100%; in test [4], 50%; in [5], 100%. Further, the pest or weed control at 500 g/ha in the test on Eleusine indica (ELEIN) amounted to 100%; with Lolium perenne (LOLPE) it was 80%; in test [6] it was 70%.

Consider `CC(O)CNC(=O)c1cc[n+](CCC(=O)O)nc1` (stereo not drawn) [Compound A128], for which the pest or weed control at 500 g/ha turned out to be 100% in test [1]; 90% in test [2]; 30% in test [3]; 90% in the test with Setaria faberi (SETFA); 40% in [4]; 100% in test [5]. Moreover, the values for the pest or weed control at 500 g/ha (in the test with Eleusine indica (ELEIN); in the test on Lolium perenne (LOLPE); in test [6]) were 90%, 80% and 100%, respectively.

`CC(=O)CNC(=O)c1cc[n+](CCC(=O)O)nc1` [Compound A129]: the pest or weed control at 500 g/ha in [1] came to 100%; in test [2], 100%; in test [3] it was 20%; in the test on Setaria faberi (SETFA) it was 100%; in test [4], 60%; in test [5], 100%. For the same molecule, the results for the pest or weed control at 500 g/ha (in the test with Eleusine indica (ELEIN); in the test with Lolium perenne (LOLPE); in test [6]) were 90%, 70% and 80%, respectively.

For `CC(=O)CCNC(=O)c1cc[n+](CCC(=O)O)nc1` [Compound A130], the pest or weed control at 500 g/ha in test [1] came to 100%; in test [2] it was 90%; in test [3], 10%; with Setaria faberi (SETFA), 100%; in [4], 50%; in test [5] it was 100%. In addition, the pest or weed control at 500 g/ha stood at 70% with Eleusine indica (ELEIN), 70% in the test on Lolium perenne (LOLPE) and 20% in test [6].

Regarding `CC1(C)CC(NC(=O)c2cc[n+](CCC(=O)O)nc2)=NO1` [Compound A131], the pest or weed control at 500 g/ha in test [1] is 30%; in [2], 10%; in test [3], 30%; in the test with Setaria faberi (SETFA), 30%; in [4], 30%; in [5] it was 30%. Besides, the pest or weed control at 500 g/ha in the test with Eleusine indica (ELEIN) was determined as 20%; in the test with Lolium perenne (LOLPE), 0%; in [6], 90%.

For the molecule `COCC(C)NC(=O)c1cc[n+](CCC(=O)O)nc1` (stereo not drawn) [Compound A132], the pest or weed control at 500 g/ha in test [1] amounted to 100%; in [2], 100%; in test [3] it was 40%; in the test on Setaria faberi (SETFA) it was 100%; in test [4], 90%; in test [5], 100%. The pest or weed control at 500 g/ha in the test on Eleusine indica (ELEIN) stood at 100%; in the test on Lolium perenne (LOLPE), 90%; in test [6], 70%.

For the molecule `CN1CCN(C(=O)c2cc[n+](CCC(=O)O)nc2)CC1` [Compound A133], the pest or weed control at 500 g/ha in [1] was determined as 20%; in test [2] it was 10%; in test [3], 10%; in the test with Setaria faberi (SETFA) it was 70%; in test [4] it was 60%; in [5] it was 90%. Further, the pest or weed control at 500 g/ha with Eleusine indica (ELEIN) stood at 50%; in the test with Lolium perenne (LOLPE) it was 0%; in test [6], 20%.

For `CCC1(NC(=O)c2cc[n+](CCC(=O)O)nc2)CC1` [Compound A134], the pest or weed control at 500 g/ha in test [1] came to 100%; in test [2] it was 90%; in test [3] it was 20%; in the test with Setaria faberi (SETFA), 60%; in [4], 100%; in [5], 100%. Also, the pest or weed control at 500 g/ha with Eleusine indica (ELEIN) was 90%; in the test with Lolium perenne (LOLPE) it was 90%; in test [6] it was 40%.

For the molecule `CN(CCS(C)(=O)=O)C(=O)c1cc[n+](CCC(=O)O)nc1` [Compound A135], the pest or weed control at 500 g/ha in test [1] was 80%; in test [2] it was 60%; in test [3] it was 30%; in the test on Setaria faberi (SETFA), 100%; in test [4], 60%; in [5] it was 90%. Further, the values for the pest or weed control at 500 g/ha (in the test on Eleusine indica (ELEIN); in the test on Lolium perenne (LOLPE); in test [6]) were 40%, 70% and 80%, respectively.

Consider `CS(=O)(=O)CCNC(=O)c1cc[n+](CCNS(=O)(=O)[O-])nc1` [Compound A136], for which the pest or weed control at 500 g/ha in [1] worked out at 0%; in test [2], 100%; in [3] it was 30%; in the test with Setaria faberi (SETFA), 30%; in test [4], 50%; in test [5] it was 100%. Further, the pest or weed control at 500 g/ha with Eleusine indica (ELEIN) was determined as 80%; with Lolium perenne (LOLPE) it was 70%; in [6], 60%.

On to `CC1(C)CC1NC(=O)c1cc[n+](CCC(=O)O)nc1` (stereo not drawn) [Compound A137], for which the pest or weed control at 500 g/ha in [1] came to 100%; in test [2], 90%; in [3], 0%; with Setaria faberi (SETFA) it was 70%; in test [4] it was 100%; in test [5] it was 100%. Besides, the pest or weed control at 500 g/ha worked out at 100% in the test with Eleusine indica (ELEIN), 100% with Lolium perenne (LOLPE) and 10% in [6].

As to `COCCNC(=O)c1cc[n+](CCCOS(=O)(=O)[O-])nc1` [Compound A138], the pest or weed control at 500 g/ha was 30% in [1]; 70% in test [2]; 60% in test [3]; 80% in the test on Setaria faberi (SETFA); 30% in test [4]; 70% in test [5]. Also, the pest or weed control at 500 g/ha (with Eleusine indica (ELEIN); in the test with Lolium perenne (LOLPE); in test [6]) was 60% throughout.

`COCCNC(=O)c1cc[n+](CCNS(=O)(=O)[O-])nc1` [Compound A139]: the pest or weed control at 500 g/ha in test [1] was found to be 90%; in test [2], 100%; in test [3], 40%; in the test on Setaria faberi (SETFA), 70%; in [4] it was 70%; in [5], 90%. In addition, the pest or weed control at 500 g/ha in the test on Eleusine indica (ELEIN) stood at 100%; with Lolium perenne (LOLPE), 20%; in test [6], 80%.

With `C=CCNC(=O)c1cc[n+](CCNS(=O)(=O)[O-])nc1` [Compound A140], the pest or weed control at 500 g/ha in test [1] came to 100%; in test [2], 100%; in test [3], 60%; in the test on Setaria faberi (SETFA), 90%; in [4], 70%; in test [5], 90%. Besides, the pest or weed control at 500 g/ha worked out at 100% in the test with Eleusine indica (ELEIN), 20% in the test on Lolium perenne (LOLPE) and 90% in test [6].

For the molecule `C#CCNC(=O)c1cc[n+](CCNS(=O)(=O)[O-])nc1` [Compound A141], the pest or weed control at 500 g/ha in [1] came to 100%; in [2] it was 100%; in [3], 70%; in the test with Setaria faberi (SETFA), 40%; in test [4] it was 40%; in [5], 70%. The pest or weed control at 500 g/ha in the test on Eleusine indica (ELEIN) was determined as 90%; in the test on Lolium perenne (LOLPE), 70%; in test [6] it was 60%.
